Like-named read-outs stand apart in the source and are kept apart here.

Here are results for five molecules from patent EP0381656A1, “Alcohol-soluble/water-insoluble oil-containing antifreeze” (FIRST BRANDS CORPORATION, priority 1989, dated 1990).

The format of data set [1] is physicochemical. Here is the method: The "alcohol-soluble/water-insoluble oil" (component (b)) is preferably characterized as having a minimum solubility in the selected alcohol of at least about 0.4 wt. % at 25°C at 1 atm pressure, preferably greater than 1.0 wt, % at 25°C at 1 atm pressure. The "alcohol-soluble/-water-insoluble oil" component is further characterized as being practically insoluble in a 50/50 (weight basis) mixture of the alcohol and water such that the alcohol-soluble/water-insoluble oil has a solubility in the alcohol/water mixture of less than about 0.25 wt. % at 25°C and a pressure of 1 atm, preferably less than about 0.05 at 25°C and a pressure of 1 atm. The solubility of the alcohol-soluble/water-insoluble oil in the alcohol or alcohol/water may be determined by equilibrating a concentration sequence of the oil in the alcohol under stirred conditions. After saturation for 2 hours at the specified temperature, any excess over saturation is estimated from the appearance of the solution. Insolubility is easily detected by visual observation. Formation of two distinctive phases or a turbid suspension indicates substantial insolubility. Turbidity and transmittance can be used to objectively determine if any insoluble material is present as a suspension. For example, when ethylene glycol (EG) or 1/1 mixture of EG/water are used for calibration, they both have a turbidity of 0.7 NTU (Nephelometric Turbidity Unit as measured with the HACH model 2100A turbidimeter) and 100% transmittance (or absorbance=0) measured with filtered light with 470nm wavelength using a Brinkmann PC/600 spectrophotometer. […] When 0.6% hexanol was added to the 1/1 EG/water solution, the turbidity […] to 1.9 NTU and the transmittance decreased to 98% (absorbance of 0.01). When 1% hexanol was added to 1/1 EG/water, the turbidity increased to 3 NTU and the transmittance decreased to 93% (absorbance of 0.03). […]

Data set [2] can be described thus: Contact angle of polypropylene glycol oil drop on surface-modified metal (Goniometer). The data set is classed as physicochemical.
Assay in data set [3]: as above
The data set is classed as physicochemical. The conditions noted are these: 0.1 wt. percent surface modifier. An excerpt: The effectiveness of a surface modifier compound in modifying the metal surface to be treated with a alcohol-soluble/water-insoluble oil may be evaluated by first treating a metal surface with a selected surface modifier compound. A selected oil droplet is then placed on the modified metal surface and the contact angle measured using a Goniometer.
A series of contact angle measurements were made using for convenience, a polypropylene glycol having a molecular weight of about 1000 as the oil. The contact angle measurement is made by placing the drop of polypropylene glycol on an aluminum surface submerged in a solution having 0.1 wt. percent of a selected surface modifier compound in an aqueous working antifreeze solution having 67% weight percent water, a reserve alkalinity of 50, in borate buffered glycol and having a selected pH of approximately 8. The measured contact angles were as follows:
Several additional surface modifiers were evaluated according to the above procedure to determine their use in wetting the surface of one or more metals commonly employed in automotive cooling systems. The contact angles for aluminum (Al) cast iron (Fe), steel, brass, ASTM solder (ASTM), copper (Cu) and Modine solder (Modine) were measured according to the procedure of this Example 2 using the following surface modifiers: […]

As to `CCCCCCO` [hexanol], the turbidity in data set [1] (0.6% in 1/1 EG/water) is 1.9 NTU; in data set [1] (1% in 1/1 EG/water), 3 NTU. In addition, the turbidity and transmittance result in data set [1] (below the solubility limit (5% in EG and 0.2% in 1/1 EG/water)) is “stayed essentially the same as that of the solvent”.
Regarding `CCCCCCCCCCCC(=O)O` [lauric acid], the CONTACT ANGLES (At 5 Minutes) Modine Solder in data set [2] (0.05% surface modifier) was determined as 117 °.
Turning to `CCCCCCCC/C=C\CCCCCCCC(=O)O` [oleic acid], the CONTACT ANGLES (At 5 Minutes) Modine Solder is 68 ° in data set [2] (0.02% surface modifier), 52 ° in data set [2] (0.05% surface modifier) and 51 ° in data set [2] (0.1% surface modifier).
In data set [3], “BUO(PO)₅C₃H₆5 Si (CH₃O)₃ [PO functional silane]” came in with a CONTACT ANGLES (At 5 Minutes) ASTM Solder of 138 °, a CONTACT ANGLES (At 5 Minutes) Al of 139 °, a CONTACT ANGLES (At 5 Minutes) Brass of 63 ° and a CONTACT ANGLES (At 5 Minutes) Cu of 27 °. Further, in data set [3], the CONTACT ANGLES (At 5 Minutes) Fe stood at 90 ° and the CONTACT ANGLES (At 5 Minutes) Steel turned out to be 65 °. In data set [2] (0.1% surface modifier), this molecule showed a CONTACT ANGLES (At 5 Minutes) Modine Solder of 138 °.
In data set [3], C₁₅hydroxyalkanesulfonate yielded a CONTACT ANGLES (At 5 Minutes) ASTM Solder of 150 °, a CONTACT ANGLES (At 5 Minutes) Al of 145 °, a CONTACT ANGLES (At 5 Minutes) Brass of 57 ° and a CONTACT ANGLES (At 5 Minutes) Cu of 58 °. In data set [3], this molecule displayed a CONTACT ANGLES (At 5 Minutes) Fe of 108 ° and a CONTACT ANGLES (At 5 Minutes) Steel of 160 °. This molecule showed a CONTACT ANGLES (At 5 Minutes) Modine Solder in data set [2] (0.1% surface modifier) of 120 °.
